Assay results from BigSolDB 2.1.

Cl.c1ccc([C@H]2CN3CCSC3=N2)cc1
Details	solubility (mole fraction)
in DMSO, 293.15 K	0.0117
in DMSO, 298.15 K	0.0129
in DMSO, 303.15 K	0.014
in DMSO, 308.15 K	0.0157
in DMSO, 313.15 K	0.0173
in DMSO, 318.15 K	0.0193
in DMSO, 323.15 K	0.0218
in DMSO, 328.15 K	0.0237
in DMSO, 333.15 K	0.0265
in ethanol, 283.15 K	0.00753
in ethanol, 288.15 K	0.00881
in ethanol, 293.15 K	0.0101
in ethanol, 298.15 K	0.0119
in ethanol, 303.15 K	0.0153
in ethanol, 308.15 K	0.0178
in ethanol, 313.15 K	0.0201
in ethanol, 318.15 K	0.0244
in ethanol, 323.15 K	0.0289
in isobutanol, 283.15 K	0.000869
in isobutanol, 288.15 K	0.00131
in isobutanol, 293.15 K	0.00182
in isobutanol, 298.15 K	0.00247
in isobutanol, 303.15 K	0.00334
in isobutanol, 308.15 K	0.00447
in isobutanol, 313.15 K	0.00577
in isobutanol, 318.15 K	0.00747
in isobutanol, 323.15 K	0.00937
in isopentanol, 283.15 K	0.00108
in isopentanol, 288.15 K	0.00134
in isopentanol, 293.15 K	0.00182
in isopentanol, 298.15 K	0.00234
in isopentanol, 303.15 K	0.00287
in isopentanol, 308.15 K	0.00402
in isopentanol, 313.15 K	0.00542
in isopentanol, 318.15 K	0.00676
in isopentanol, 323.15 K	0.00873
in isopropanol, 283.15 K	0.000856
in isopropanol, 288.15 K	0.00104
in isopropanol, 293.15 K	0.00138
in isopropanol, 298.15 K	0.00179
in isopropanol, 303.15 K	0.00225
in isopropanol, 308.15 K	0.00275
in isopropanol, 313.15 K	0.00319
in isopropanol, 318.15 K	0.00401
in isopropanol, 323.15 K	0.00475
in methanol, 283.15 K	0.0298
in methanol, 288.15 K	0.0357
in methanol, 293.15 K	0.0429
in methanol, 298.15 K	0.0513
in methanol, 303.15 K	0.0595
in methanol, 308.15 K	0.0696
in methanol, 313.15 K	0.0816
in methanol, 318.15 K	0.0955
in methanol, 323.15 K	0.109
in n-butanol, 283.15 K	0.00182
in n-butanol, 288.15 K	0.00236
in n-butanol, 293.15 K	0.00311
in n-butanol, 298.15 K	0.00407
in n-butanol, 303.15 K	0.00542
in n-butanol, 308.15 K	0.00699
in n-butanol, 313.15 K	0.00888
in n-butanol, 318.15 K	0.0111
in n-butanol, 323.15 K	0.0139
in n-hexanol, 283.15 K	0.000727
in n-hexanol, 288.15 K	0.000986
in n-hexanol, 293.15 K	0.00136
in n-hexanol, 298.15 K	0.00198
in n-hexanol, 303.15 K	0.00226
in n-hexanol, 308.15 K	0.00283
in n-hexanol, 313.15 K	0.0035
in n-hexanol, 318.15 K	0.00437
in n-hexanol, 323.15 K	0.00524
in n-pentanol, 283.15 K	0.000747
in n-pentanol, 288.15 K	0.00112
in n-pentanol, 293.15 K	0.00161
in n-pentanol, 298.15 K	0.00209
in n-pentanol, 303.15 K	0.00293
in n-pentanol, 308.15 K	0.00377
in n-pentanol, 313.15 K	0.00471
in n-pentanol, 318.15 K	0.00605
in n-pentanol, 323.15 K	0.00745
in n-propanol, 283.15 K	0.00412
in n-propanol, 288.15 K	0.00492
in n-propanol, 293.15 K	0.00631
in n-propanol, 298.15 K	0.00751
in n-propanol, 303.15 K	0.00903
in n-propanol, 308.15 K	0.0109
in n-propanol, 313.15 K	0.013
in n-propanol, 318.15 K	0.0149
in n-propanol, 323.15 K	0.0169
in sec-butanol, 283.15 K	0.000587
in sec-butanol, 288.15 K	0.000722
in sec-butanol, 293.15 K	0.000867
in sec-butanol, 298.15 K	0.00105
in sec-butanol, 303.15 K	0.00123
in sec-butanol, 308.15 K	0.00148
in sec-butanol, 313.15 K	0.00177
in sec-butanol, 318.15 K	0.00213
in sec-butanol, 323.15 K	0.00252
in water, 283.15 K	0.0664
in water, 285.65 K	0.0718
in water, 288.15 K	0.0769
in water, 290.65 K	0.0825
in water, 293.15 K	0.0879
in water, 295.65 K	0.0943
in water, 298.15 K	0.101
in water, 300.65 K	0.106
in water, 303.15 K	0.113
in water, 305.65 K	0.12
in water, 308.15 K	0.127
